For 34 compounds, emission maximum results are on record in the Deep4Chem optical property database.

Several values for one entry are separate records, joined by “and”; a condition that tells them apart may be missing. Identical values can stand only once.

A short description of one data set: solvent given as SMILES. The note with it: in CN(C)C=O.
Compound `CCN(CC)c1ccc2cc(/C=C/C3=C4CC/C(=C\c5cc6ccc(N(CC)CC)cc6oc5=O)C4=[O+][B-](F)(F)O3)c(=O)oc2c1` registered an emission maximum of 758 nm.
The same measure, in the same setting: under `CCn1c2ccccc2c2cc(C#Cc3cc(C#Cc4ccc5c(c4)c4ccccc4n5CC)nc(N4CCCCC4)n3)ccc21` stands 469 nm; under `CCN(CC)c1ccc(/C=C2\CC/C(=C\c3ccc(N(c4ccccc4)c4ccccc4)cc3)C2=C(C#N)C#N)cc1`, 716 nm.

Still in this data set, the particulars now being: in CO.
Compound `CN1/C(=C/C=C(/C=C/C2=[N+](C)c3ccccc3C2(C)C)c2cc(F)cc(F)c2)C(C)(C)c2ccccc21` gave an emission maximum of 655 nm.
As for `CC1(C)C(/C=C/C2=C(c3ccc(C(=O)O)cc3)C(=C/C=C3/N(CCCCS(=O)(=O)[O-])c4ccc(S(=O)(=O)[O-])cc4C3(C)C)/CCC2)=[N+](CCCCS(=O)(=O)[O-])c2ccc(S(=O)(=O)[O-])cc21`, the emission maximum was 785 nm and 790 nm.
`CCCSc1ccc2n1[B-](F)(F)[N+]1=CC=CC1=C2c1ccccc1` came in with an emission maximum of 583 nm.
Turning to `c1ccc2cc(-n3c4ccccc4c4ccccc43)ccc2c1`, the emission maximum was 382 nm.
`CS1(C)C(/C=C/C2=C(c3ccc(C(=O)O)cc3)C(=C/C=C3/N(CCCCS(=O)(=O)[O-])c4ccccc4S3(C)C)/CCC2)=[N+](CCCCS(=O)(=O)[O-])c2ccccc21` returned an emission maximum of 813 nm.
Still for that read-out and setting: under `COc1nc(Nc2ccc3c4c(cccc24)C(=O)c2ccccc2-3)nc(OC)n1` stands 586.85 nm; under `CC[N+]1=C(/C=C/C=C/C=C/C=C2/N(CCCCCC(=O)O)c3ccccc3C2(C)C)C(C)(C)c2cc(S(=O)(=O)[O-])ccc21`, 775 nm; under `C(C1=[NH+]c2cccc3cccc1c23)=c1[nH]c2cccc3cccc1c32`, 617 nm.
On the same count and under the same terms, under `COc1ccc(-c2nc3c(c4c2-c2ccccc2CC4)-c2ccccc2CC3)cc1` stands 428 nm.

The same data set, now with this note: in CS(C)=O.
On to `CN1/C(=C/C=C(/C=C/C2=[N+](C)c3ccccc3C2(C)C)c2cc(F)cc(F)c2)C(C)(C)c2ccccc21`, for which the emission maximum was found to be 663 nm.
The same measure, in the same setting: under `CCN(CC)c1ccc2cc(/C=C/C3=C4CC/C(=C\c5cc6ccc(N(CC)CC)cc6oc5=O)C4=[O+][B-](F)(F)O3)c(=O)oc2c1` stands 780 nm; under `Cc1cc2c(cc1C)NC(=O)CC(=O)N2`, 349 nm; under `CCOC(=O)c1[nH]c(C)c(/C=C/C2=[N+]3C(=C(c4cc(OC)cc(OC)c4)c4c(C)c(I)c(/C=C/c5c(C)[nH]c(C(=O)OCC)c5C)n4[B-]3(F)F)C(C)=C2I)c1C`, 731 nm.
Turning to `COc1ccc2cc(-c3ccc(C)cc3)c(=O)oc2c1`, the emission maximum is reported as 431 nm.
Same read-out and setting: under `COc1ccc(-c2nc3c(c4c2-c2ccccc2CC4)-c2ccccc2CC3)cc1` stands 415 nm.

Still in this data set, the particulars now being: in Cc1ccccc1.
Turning to `CCN(CC)c1ccc2cc(/C=C/C3=C4CC/C(=C\c5cc6ccc(N(CC)CC)cc6oc5=O)C4=[O+][B-](F)(F)O3)c(=O)oc2c1`, the emission maximum is given as 658 nm.
With `Oc1ccccc1C1=NC2c3cccc4cccc(c34)C2N1c1ccccc1` (configuration not stated), the emission maximum came out at 575 nm.
On the same count and under the same terms, under `CCn1c2ccccc2c2cc(C#Cc3cc(C#Cc4ccc5c(c4)c4ccccc4n5CC)nc(N4CCCCC4)n3)ccc21` stands 438 nm; under `c1ccc2cc(-n3c4ccccc4c4ccccc43)ccc2c1`, 364 nm; under `COc1nc(Nc2ccc3c4c(cccc24)C(=O)c2ccccc2-3)nc(OC)n1`, 521.92 nm.
Consider `CC(C)(C)c1ccc(N(c2ccc(S(=O)(=O)c3ccc(S(=O)(=O)c4ccc(N(c5ccc(C(C)(C)C)cc5)c5ccccc5C(C)(C)C)cc4)cc3)cc2)c2ccccc2C(C)(C)C)cc1`, for which the emission maximum was found to be 454 nm.
Same read-out and setting: under `c1ccc2c(c1)Sc1ccccc1N2c1ccc2c(c1)C1(c3ccccc3-c3ccccc31)c1cc(N3c4ccccc4Sc4ccccc43)ccc1-2` stands 498 nm.
Still for that read-out and setting: for `Cc1ccc2c(c1)C(c1ccccc1)(c1ccccc1)c1cc(C)ccc1N2c1ccc2c(c1)Sc1ccccc1B2c1c(C(C)C)cc(C(C)C)cc1C(C)C` the value was 493 nm; for `COc1ccc(-c2nc3c(c4c2-c2ccccc2CC4)-c2ccccc2CC3)cc1`, 419 nm.

The same data set, now with this note: in ClC(Cl)Cl.
As for `CC(C)(C)c1ccc2oc3nc4oc5ccc(-n6c7ccc(C(C)(C)C)cc7c7cc(C(C)(C)C)ccc76)cc5c4cc3c2c1`, the emission maximum was 444 nm.
For `F[Si](c1c2ccccc2cc2ccccc12)(c1c2ccccc2cc2ccccc12)c1c2ccccc2cc2ccccc12`, the emission maximum came to 434 nm.
The same measure, in the same setting: for `CO[Si](c1c2ccccc2cc2ccccc12)(c1c2ccccc2cc2ccccc12)c1c2ccccc2cc2ccccc12` the value was 439 nm; for `CCN(CC)c1ccc2cc(/C=C/C3=C4CC/C(=C\c5cc6ccc(N(CC)CC)cc6oc5=O)C4=[O+][B-](F)(F)O3)c(=O)oc2c1`, 706 nm.
Turning to `CC(C)C[Si](C#Cc1c2c(=O)c3ccccc3c2c(C#C[Si](CC(C)C)(CC(C)C)CC(C)C)c2c(=O)c3ccccc3c12)(CC(C)C)CC(C)C`, the emission maximum stood at 567 nm.
The same measure, in the same setting: for `c1ccc2cc(-n3c4ccccc4c4ccccc43)ccc2c1` the value was 376 nm.
On the same count and under the same terms, for `CCN(CC)c1ccc2cc(-c3cn4cc5ccccc5cc4n3)c(=O)oc2c1` the value was 460 nm.
On to `N#Cc1cc2ccc(C(F)(F)F)cc2c2c1ccc1ccccc12`, for which the emission maximum is recorded as 408 nm.

The same data set, now with this note: in ClCCl.
In turn, `COc1cc(OC)c2cc(C#N)c(=N)oc2c1` had an emission maximum of 428 nm.
Still for that read-out and setting: under `CCN(CC)c1ccc2cc(/C=C/C3=C4CC/C(=C\c5cc6ccc(N(CC)CC)cc6oc5=O)C4=[O+][B-](F)(F)O3)c(=O)oc2c1` stands 730 nm; under `COC(=O)C1=C(C(=O)OC)[Se](=O)[C@]23C1=C[C@H](c1ccccc12)c1ccccc13` (some centres not stated), 495 nm.
Still for that read-out and setting: for `CCCSc1ccc2n1[B-](F)(F)[N+]1=CC=CC1=C2c1ccccc1` the value was 594 nm; for `CCOC(=O)c1[nH]c(C)c(/C=C/C2=[N+]3C(=C(c4cc(OC)cc(OC)c4)c4c(C)c(I)c(/C=C/c5c(C)[nH]c(C(=O)OCC)c5C)n4[B-]3(F)F)C(C)=C2I)c1C`, 710 nm; for `CCn1c2ccccc2c2cc(C#Cc3cc(C#Cc4ccc5c(c4)c4ccccc4n5CC)nc(N4CCCCC4)n3)ccc21`, 450 nm.
On the same count and under the same terms, under `CCN1c2ccc(C3=CC(c4ccccc4)=[O+][B-](F)(F)O3)cc2Sc2cc(C3=CC(c4ccccc4)=[O+][B-](F)(F)O3)ccc21` stands 639 nm; under `C[Si]1(C)c2ccc(-c3cccs3)cc2C=Cc2cc(-c3cccs3)ccc21`, 373 nm; under `COC(=O)c1c(-c2cc3ccccc3oc2=O)nn(-c2cccc(Cl)c2)c1C(=O)OC`, 418 nm.
Consider `CC[N+](CC)=c1ccc2cc3c(=O)oc4cc5c(cc4c3oc-2c1)CCCN5C`, for which the emission maximum was 648 nm.
`COc1ccc(-c2nc3c(c4c2-c2ccccc2CC4)-c2ccccc2CC3)cc1` came in with an emission maximum of 424 nm.

The same data set, now with this note: in Clc1ccccc1.
`COc1nc(Nc2ccc3c4c(cccc24)C(=O)c2ccccc2-3)nc(OC)n1` registered an emission maximum of 526.87 nm.

The same data set, now with this note: in N#Cc1ccccc1.
Compound `COc1nc(Nc2ccc3c4c(cccc24)C(=O)c2ccccc2-3)nc(OC)n1` showed an emission maximum of 535.91 nm.

Staying with this data set, now noted: in O.
`[NH3+]c1cc([NH3+])cc(-c2[nH+]c3ccccc3s2)c1` registered an emission maximum of 460 nm.
Still for that read-out and setting: for `CN1/C(=C/C=C(/C=C/C2=[N+](C)c3ccccc3C2(C)C)c2cc(F)cc(F)c2)C(C)(C)c2ccccc21` the value was 659 nm.
`CN1C(=O)/C(=C/c2ccncc2)N=C1c1ccccc1` registered an emission maximum of 477 nm.
`O=C([O-])c1cc2c(ccc3ccccc32)oc1=O` came in with an emission maximum of 428 nm.
On the same count and under the same terms, for `CC[N+]1=C(/C=C/C=C/C=C/C=C2/N(CCCCCC(=O)O)c3ccccc3C2(C)C)C(C)(C)c2cc(S(=O)(=O)[O-])ccc21` the value was 769 nm; for `CC[N+](CC)=c1ccc2cc3c(=O)oc4cc5c(cc4c3oc-2c1)CCCN5C`, 658 nm.

Still in this data set, the particulars now being: in O=C1CCCCC1.
In the case of `COc1nc(Nc2ccc3c4c(cccc24)C(=O)c2ccccc2-3)nc(OC)n1`, the emission maximum was 531.91 nm.

The data set is the same for the next values; noted with them: in O=P(c1ccccc1)(c1ccccc1)c1ccc2oc3ccc(P(=O)(c4ccccc4)c4ccccc4)cc3c2c1.
Compound `Cc1ccc2c(c1)C(c1ccccc1)(c1ccccc1)c1cc(C)ccc1N2c1ccc2c(c1)Sc1ccccc1B2c1c(C(C)C)cc(C(C)C)cc1C(C)C` registered an emission maximum of 497 nm.

The data set is the same for the next values; noted with them: in c1cc(-n2c3ccccc3c3ccccc32)nc(-n2c3ccccc3c3ccccc32)c1.
`CC(C)(C)c1ccc(N(c2ccc(S(=O)(=O)c3ccc(S(=O)(=O)c4ccc(N(c5ccc(C(C)(C)C)cc5)c5ccccc5C(C)(C)C)cc4)cc3)cc2)c2ccccc2C(C)(C)C)cc1` yielded an emission maximum of 463.53 nm.
